Structures are written as SMILES.

This assay deals with CK2A1 (CK2α/β) (Homo sapiens, UniProt P68400). The assay is described as follows: CK2 kinase assay, CK2A1 (CK2α/β). Type of assay: biochemical. As to conditions: Table A; read-out: CK2A1 (CK2α/β) (IC50).
CK2A1 (CK2α/β), sequence (P68400 whole entry, species assumed): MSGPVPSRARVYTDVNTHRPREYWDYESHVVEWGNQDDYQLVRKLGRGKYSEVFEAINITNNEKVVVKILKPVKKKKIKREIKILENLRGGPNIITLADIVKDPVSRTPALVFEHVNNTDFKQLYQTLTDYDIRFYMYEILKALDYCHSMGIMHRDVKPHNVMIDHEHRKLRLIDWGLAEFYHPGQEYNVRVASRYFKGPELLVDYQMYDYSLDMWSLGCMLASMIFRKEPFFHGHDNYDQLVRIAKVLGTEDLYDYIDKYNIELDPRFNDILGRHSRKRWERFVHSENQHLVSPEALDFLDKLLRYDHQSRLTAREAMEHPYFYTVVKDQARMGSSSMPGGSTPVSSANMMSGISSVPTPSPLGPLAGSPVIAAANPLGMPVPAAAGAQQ
CK2A1 (CK2α/β), sequence (P67870 whole entry partner, species assumed): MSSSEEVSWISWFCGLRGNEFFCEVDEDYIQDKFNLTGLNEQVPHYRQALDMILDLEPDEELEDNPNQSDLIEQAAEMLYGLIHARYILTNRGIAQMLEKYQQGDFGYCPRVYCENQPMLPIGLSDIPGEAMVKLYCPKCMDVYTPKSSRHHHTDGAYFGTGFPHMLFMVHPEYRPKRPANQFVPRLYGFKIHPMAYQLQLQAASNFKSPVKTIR
For `CC(C)(C)[C@@H](N)C(=O)N1CC(N2CCN(c3cc(C#N)cc(Nc4nc(NC5CC5)c5ncc(C#N)n5n4)c3Cl)CC2)C1` [Example 502, 2-{[3-(4-{1-[(2R)-2-amino-3,3-dimethylbutanoyl]azetidin-3-yl}piperazin-1-yl)-2-chloro-5-cyanophenyl]amino}-4-(cyclopropylamino)imidazo[2,1-f][1,2,4]triazine-7-carbonitrile], the IC50 turned out to be 3.27 nM.

Take `N#Cc1cc(Nc2nc(NC3CC3)c3ncc(C#N)n3n2)c(Cl)c(N2CCN(C3CN(C(=O)[C@@H]4C[C@H](F)CN4)C3)CC2)c1` [Example 503, 2-{[2-chloro-5-cyano-3-(4-{1-[(2S,4S)-4-fluoropyrrolidine-2-carbonyl]azetidin-3-yl}piperazin-1-yl)phenyl]amino}-4-(cyclopropylamino)imidazo[2,1-f][1,2,4]triazine-7-carbonitrile]: the IC50 turned out to be 3.67 nM.

For the compound `N#Cc1cc(Nc2nc(NC3CC3)c3ncc(C#N)n3n2)c(Cl)c(N2CCN(C3CN(S(=O)(=O)C4CC4)C3)CC2)c1` [Example 504, 2-[(2-chloro-5-cyano-3-{4-[1-(cyclopropanesulfonyl)azetidin-3-yl]piperazin-1-yl}phenyl)amino]-4-(cyclopropylamino)imidazo[2,1-f][1,2,4]triazine-7-carbonitrile], the IC50 came out at 4.07 nM.

As to `CC(C)(C)[C@H](N)C(=O)N1CC(N2CCN(c3cc(C#N)cc(Nc4nc(NC5CC5)c5ncc(C#N)n5n4)c3Cl)CC2)C1` [Example 505, 2-{[3-(4-{1-[(2S)-2-amino-3,3-dimethylbutanoyl]azetidin-3-yl}piperazin-1-yl)-2-chloro-5-cyanophenyl]amino}-4-(cyclopropylamino)imidazo[2,1-f][1,2,4]triazine-7-carbonitrile], the IC50 is 5.42 nM.

Regarding `N#Cc1cc(Nc2nc(NC3CC3)c3ncc(C#N)n3n2)c(Cl)c(N2CCN(C3CN(C(=O)C4CCC(=O)N4)C3)CC2)c1` (centres unmarked) [Example 506, 2-[(2-chloro-5-cyano-3-{4-[1-(5-oxopyrrolidine-2-carbonyl)azetidin-3-yl]piperazin-1-yl}phenyl)amino]-4-(cyclopropylamino)imidazo[2,1-f][1,2,4]triazine-7-carbonitrile], the IC50 was 4.33 nM.

With `N#Cc1cc(Nc2nc(NC3CC3)c3ncc(C#N)n3n2)c(Cl)c(N2CCN(C3CN(S(=O)(=O)CC(F)(F)F)C3)CC2)c1` [Example 507, 2-[(2-chloro-5-cyano-3-{4-[1-(2,2,2-trifluoroethanesulfonyl)azetidin-3-yl]piperazin-1-yl}phenyl)amino]-4-(cyclopropylamino)imidazo[2,1-f][1,2,4]triazine-7-carbonitrile], the IC50 was 16.9 nM.

As to `CCC(C)(O)CC(=O)N1CC(N2CCN(c3cc(C#N)cc(Nc4nc(NC5CC5)c5ncc(C#N)n5n4)c3Cl)CC2)C1` (centres unmarked) [Example 508, 2-[(2-chloro-5-cyano-3-{4-[1-(3-hydroxy-3-methylpentanoyl)azetidin-3-yl]piperazin-1-yl}phenyl)amino]-4-(cyclopropylamino)imidazo[2,1-f][1,2,4]triazine-7-carbonitrile], the IC50 came to 4.73 nM.

In the case of `N#Cc1cc(Nc2nc(NC3CC3)c3ncc(C#N)n3n2)c(Cl)c(N2CCN(C3CN(C(=O)C4CCC(O)CC4)C3)CC2)c1` (centres unmarked) [Example 509, 2-[(2-chloro-5-cyano-3-{4-[1-(4-hydroxycyclohexane-carbonyl)azetidin-3-yl]piperazin-1-yl}phenyl)amino]-4-(cyclopropylamino)imidazo[2,1-f][1,2,4]triazine-7-carbonitrile], the IC50 amounted to 5.11 nM.

Turning to `N#Cc1cc(Nc2nc(NC3CC3)c3ncc(C#N)n3n2)c(Cl)c(N2CCN(C3CN(C(=O)[C@H](O)C(F)(F)F)C3)CC2)c1` [Example 510, 2-{[2-chloro-5-cyano-3-(4-{1-[(2S)-3,3,3-trifluoro-2-hydroxypropanoyl]azetidin-3-yl}piperazin-1-yl)phenyl]amino}-4-(cyclopropylamino)imidazo[2,1-f][1,2,4]triazine-7-carbonitrile], the IC50 was found to be 4.24 nM.

In the case of `CCOCCC(=O)N1CC(N2CCN(c3cc(C#N)cc(Nc4nc(NC5CC5)c5ncc(C#N)n5n4)c3Cl)CC2)C1` [Example 511, 2-[(2-chloro-5-cyano-3-{4-[1-(3-ethoxypropanoyl)azetidin-3-yl]piperazin-1-yl}phenyl)amino]-4-(cyclopropylamino)imidazo[2,1-f][1,2,4]triazine-7-carbonitrile], the IC50 was 4.62 nM.

For the compound `N#Cc1cc(Nc2nc(NC3CC3)c3ncc(C#N)n3n2)c(Cl)c(N2CCN(C3CN(C(=O)C4CCC(O)CC4)C3)CC2)c1` (centres unmarked) [Example 512, 2-[(2-chloro-5-cyano-3-{4-[1-(4-hydroxycyclohexane-carbonyl)azetidin-3-yl]piperazin-1-yl}phenyl)amino]-4-(cyclopropylamino)imidazo[2,1-f][1,2,4]triazine-7-carbonitrile], the IC50 was determined as 5.8 nM.

Turning to `CO[C@H](C)C(=O)N1CC(N2CCN(c3cc(C#N)cc(Nc4nc(NC5CC5)c5ncc(C#N)n5n4)c3Cl)CC2)C1` [Example 513, 2-{[2-chloro-5-cyano-3-(4-{1-[(2R)-2-methoxypropanoyl]azetidin-3-yl}piperazin-1-yl)phenyl]amino}-4-(cyclopropylamino)imidazo[2,1-f][1,2,4]triazine-7-carbonitrile], the IC50 is 3.08 nM.

Consider `C[C@H](O)CC(=O)N1CC(N2CCN(c3cc(C#N)cc(Nc4nc(NC5CC5)c5ncc(C#N)n5n4)c3Cl)CC2)C1` [Example 514, 2-{[2-chloro-5-cyano-3-(4-{1-[(3S)-3-hydroxybutanoyl]azetidin-3-yl}piperazin-1-yl)phenyl]amino}-4-(cyclopropylamino)imidazo[2,1-f][1,2,4]triazine-7-carbonitrile], for which the IC50 was found to be 3.9 nM.

Regarding `CC1(C(=O)N2CC(N3CCN(c4cc(C#N)cc(Nc5nc(NC6CC6)c6ncc(C#N)n6n5)c4Cl)CC3)C2)COC1` [Example 515, 2-[(2-chloro-5-cyano-3-{4-[1-(3-methyloxetane-3-carbonyl)azetidin-3-yl]piperazin-1-yl}phenyl)amino]-4-(cyclopropylamino)imidazo[2,1-f][1,2,4]triazine-7-carbonitrile], the IC50 was determined as 4.84 nM.

`CC(F)(F)C(=O)N1CC(N2CCN(c3cc(C#N)cc(Nc4nc(NC5CC5)c5ncc(C#N)n5n4)c3Cl)CC2)C1` [Example 516, 2-[(2-chloro-5-cyano-3-{4-[1-(2,2-difluoropropanoyl)azetidin-3-yl]piperazin-1-yl}phenyl)amino]-4-(cyclopropylamino)imidazo[2,1-f][1,2,4]triazine-7-carbonitrile]: the IC50 came out at 4.09 nM.

Take `N#Cc1cc(Nc2nc(NC3CC3)c3ncc(C#N)n3n2)c(Cl)c(N2CCN(C3CN(C(=O)C4CCCO4)C3)CC2)c1` (centres unmarked) [Example 517, 2-[(2-chloro-5-cyano-3-{4-[1-(oxolane-2-carbonyl)azetidin-3-yl]piperazin-1-yl}phenyl)amino]-4-(cyclopropylamino)imidazo[2,1-f][1,2,4]triazine-7-carbonitrile]: the IC50 turned out to be 3.66 nM.

For the compound `CC(C)OC(=O)N1CC(N2CCN(c3cc(C#N)cc(Nc4nc(NC5CC5)c5ncc(C#N)n5n4)c3Cl)CC2)C1` [Example 518, propan-2-yl 3-[4-(2-chloro-5-cyano-3-{[7-cyano-4-(cyclopropylamino)imidazo[2,1-f][1,2,4]triazin-2-yl]amino}phenyl)piperazin-1-yl]azetidine-1-carboxylate], the IC50 came out at 10.3 nM.

For the origin of these results see patent publication US9273057B2 (Bristol-Myers Squibb Company, priority 2012, dated 2016).
